One compound from patent US6596518B2, “Percyquinnin, a process for its production and its use as a pharmaceutical” (Aventis Pharma Deutschland GmbH, priority 2000, dated 2003) can be followed below.

This data set is described as follows: Solubility (physico-chemical properties, Table 1). It is filed as physicochemical. The conditions noted are these: solvents in which the compound is soluble.

Take `CC(C)=CCC12C(=O)OC1CC=C2CO` (stereo not shown) [Percyquinnin]: the Solubility result is “Methanol, DMSO”.
